Data as given in ChEMBL document CHEMBL1147031, “3D-QSAR and molecular docking studies of benzaldehyde thiosemicarbazone, benzaldehyde, benzoic acid, and their derivatives as phenoloxidase inhibitors” (Bioorg Med Chem, 2007).

assay: Inhibition of pieris rapae Phenoloxidase

SMILES | IC50 [mM]
Nc1ccc(C(=O)O)cc1O | 25.5
NC(=S)N/N=C\C=C\c1ccccc1 | 0.00065
O=C(O)c1ccc(O)c(O)c1 [PROTOCATECHUIC ACID] | 29.5
O=C(O)c1cccc(O)c1 [3-HYDROXYBENZOIC ACID] | 16.2
O=C(O)c1ccc(O)cc1O [2,4-DIHYDROXYBENZOIC ACID] | 30.5
COc1cccc(C=O)c1 | 42.9
COc1ccc(C(=O)O)cc1O [ISOVANILLIC ACID] | 47.5
CC(C)c1ccc(C=O)cc1 | 0.86
NC(=S)N/N=C/c1ccccc1 [PHENYLTHIOSEMICARBAZONE] | 0.00084
COc1cc(C(=O)O)ccc1O [VANILLIC ACID] | 69
COc1ccc(C=O)cc1O [ISOVANILLIN] | 24.9
O=C(O)c1ccccc1O [SALICYLIC ACID] | 33.8
NC(=S)N/N=C/c1ccccc1O | 0.0022
COc1cccc(/C=N/NC(N)=S)c1 | 0.00192
COc1cccc(C(=O)O)c1 | 13.3
O=C(O)c1cc(O)ccc1O [GENTISIC ACID] | 32.5
Nc1cc(C(=O)O)ccc1O | 3.8
O=C(O)c1ccccc1 [BENZOIC ACID] | 14.2
O=Cc1ccccc1 [BENZALDEHYDE] | 5.9
COc1ccc(C=O)cc1 | 1.9

The next lines start with the values.

IC50 [mM] | SMILES
16.2 | O=C(O)c1ccc(O)cc1 [PARABEN]
4.14 | O=Cc1ccccc1O
1.05 | O=Cc1cc(O)ccc1O
107 | COc1ccccc1C=O [2-METHOXYBENZALDEHYDE]
5.75 | COc1cccc(C=O)c1O
5.55 | COc1ccc(C(=O)O)cc1 [p-ANISIC ACID]
50.5 | COc1cc(C=O)ccc1O [VANILLIN]
0.0006 | COc1ccc(/C=N/NC(N)=S)cc1
1.92 | CC(C)c1ccc(C(=O)O)cc1
0.72 | CC(C)(C)c1ccc(C=O)cc1
9 | O=Cc1ccc(O)c(O)c1 [PROTOCATECHUALDEHYDE]
9.62 | O=Cc1cccc(O)c1 [3-HYDROXYBENZALDEHYDE]
3.12 | O=Cc1ccc(O)cc1 [4-HYDROXYBENZALDEHYDE]
2 | COc1ccc(C=O)c(O)c1
1.75 | CCCc1ccc(C(=O)O)cc1
4.88 | O=Cc1ccc(O)cc1O
2.1 | CC(C)(C)c1ccc(C(=O)O)cc1
